Reference: ChEMBL document CHEMBL1140303, “Pharmacophore, drug metabolism, and pharmacokinetics models on non-peptide AT1, AT2, and AT1/AT2 angiotensin II receptor antagonists” (J Med Chem, 2005)

Tests used:
[1] = Percentage modification of drug adsorbed after administration to human; assay type: ADME
[2] = target: T1, Type-1 angiotensin II receptor (Homo sapiens) (UniProt P30556); assay: Binding affinity for AT1 receptor
T1 sequence (whole entry): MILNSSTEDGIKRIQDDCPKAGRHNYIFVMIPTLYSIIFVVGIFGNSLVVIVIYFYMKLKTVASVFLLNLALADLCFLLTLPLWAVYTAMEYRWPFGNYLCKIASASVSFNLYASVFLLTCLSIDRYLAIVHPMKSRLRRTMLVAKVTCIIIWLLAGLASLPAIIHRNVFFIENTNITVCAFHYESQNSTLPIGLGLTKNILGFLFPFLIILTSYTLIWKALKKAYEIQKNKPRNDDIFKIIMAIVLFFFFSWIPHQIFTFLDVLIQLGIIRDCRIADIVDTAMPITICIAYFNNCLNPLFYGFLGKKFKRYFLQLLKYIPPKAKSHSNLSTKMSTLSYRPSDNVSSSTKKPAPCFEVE

[3] = Oral bioavailability; assay type: ADME, organism-based; conditions: human, in vivo
[4] = Time required for elimination of 50% of the compound; assay type: ADME; conditions: human
[5] = Volume distribution was determined; assay type: ADME, organism-based; conditions: human, in vivo
[6] = target: T1, Type-1 angiotensin II receptor (Homo sapiens)
Description: pKa value against human Angiotensin II receptor type 1

[7] = target: T1, Type-1 angiotensin II receptor (Homo sapiens); assay: Time to maximal plasma concentration of the drug in human
[8] = target: T1, Type-1 angiotensin II receptor (Homo sapiens); assay: Time to maximal effect against human Angiotensin II receptor type 1

SMILES: CCCc1nc2c(C)cc(-c3nc4ccccc4n3C)cc2n1Cc1ccc(-c2ccccc2C(=O)O)cc1
- Modification of adsorbed drug [1]: 16%
- Affinity [2]: 1 nM
- bioavailability [3]: 58%
- half-life [4]: 24 h
- Vd [5]: 4.54 L/kg
- pKa [6]: 4.5
- Tmax [7]: 1 h

SMILES: Cc1nc(C)c2c(O)cc(=O)n(Cc3ccc(-c4ccccc4-c4nn[nH]n4)cc3)c2n1
- Affinity [2]: 0.4 nM
- Tmax [7]: 1 h

SMILES: CCCCc1nc(Cl)c(CO)n1Cc1ccc(-c2ccccc2C(=O)O)cc1
- Affinity [2]: 230 nM

SMILES: CCCCC(=O)N(Cc1ccc(-c2ccccc2-c2nnn[nH]2)cc1)[C@H](C(=O)O)C(C)C
- Modification of adsorbed drug [1]: 9%
- Affinity [2]: 1.7 nM
- bioavailability [3]: 25%
- half-life [4]: 6.1 h
- Vd [5]: 0.22 L/kg
- Tmax [7]: 4 h

SMILES: CCCCc1nc(Cl)c(C(=O)O)n1Cc1ccc(-c2ccccc2-c2nn[nH]n2)cc1 [CARBOXYLIC ACID METABOLITE]
- Affinity [2]: 1.3 nM
- half-life [4]: 6.4 h
- pKa [6]: 2.8
- Tmax [7]: 3 h

SMILES: CCCCc1nc(Cl)c(CO)n1Cc1ccc(-c2ccccc2-c2nnn[nH]2)cc1
- Affinity [2]: 6.4 nM
- pKa [6]: 4.9
- Tmax [7]: 1 h

SMILES: CCOc1nc2cccc(C(=O)O)c2n1Cc1ccc(-c2ccccc2-c2nnn[nH]2)cc1
- Modification of adsorbed drug [1]: 20%
- Affinity [2]: 0.1 nM
- bioavailability [3]: 40%
- half-life [4]: 11 h
- pKa [6]: 3.9
- Tmax [8]: 4 h

SMILES: CCCCc1ncc(/C=C(\Cc2cccs2)C(=O)O)n1Cc1ccc(C(=O)O)cc1 [EPROSARTAN]
- Modification of adsorbed drug [1]: 20%
- Affinity [2]: 9.2 nM
- bioavailability [3]: 13%
- half-life [4]: 7 h
- Vd [5]: 0.16 L/kg
- pKa [6]: 5
- Tmax [7]: 13 h

SMILES: CCCCC1=NC2(CCCC2)C(=O)N1Cc1ccc(-c2ccccc2-c2nnn[nH]2)cc1 [IRBESARTAN]
- Modification of adsorbed drug [1]: 20%
- Affinity [2]: 1.3 nM
- bioavailability [3]: 70%
- half-life [4]: 21 h
- Vd [5]: 0.9 L/kg
- pKa [6]: 4.7
- Tmax [7]: 2.5 h

SMILES: CCc1nc2c(C)cc(C)nc2n1Cc1ccc(-c2ccccc2-c2nn[nH]n2)cc1
- Affinity [2]: 0.5 nM

SMILES: Cc1nc(C)c2c(O)cc(=O)n(Cc3ccc(-c4ccccc4-c4nnn[nH]4)cc3)c2n1 [ENOLTASOSARTAN]
- half-life [4]: 40 h

SMILES: Cc1nc(C)c2c(n1)N(Cc1ccc(-c3ccccc3-c3nnn[nH]3)cc1)C(=O)CC2 [TASOSARTAN]
- Modification of adsorbed drug [1]: 2%
- Affinity [2]: 1.2 nM
- bioavailability [3]: 60%
- half-life [4]: 15 h
- pKa [6]: 5
- Tmax [7]: 0.5 h

SMILES: CCCCc1nc(Cl)c(CO)n1Cc1ccc(-c2ccccc2-c2nn[nH]n2)cc1 [LOSARTAN]
- Modification of adsorbed drug [1]: 75%
- half-life [4]: 3.2 h
- VD [5]: 0.38 L/kg
